Results from patent US7223865B2, “Chromogenic compounds, and use thereof as enzyme substrates” (Biomerieux, priority 2003, dated 2007).

Legend:
Format in all cases: cell-based
[1] = test system: Escherichia coli (032); test: L-alanine-aminopeptidase activity on gelled medium, Example 3; conditions: 0.3 g/l
Protocol: (§1) A gelled medium comprising 300 mg/l of L-Ala-4-AP-10-MA is prepared as follows: 46.37 g of Columbia agar are added to 1 liter of distilled water and then autoclaved, and the substrate is then introduced by means of a stock solution in DMSO. Microorganisms derived from the applicant's collection were seeded onto the medium, by delimitation as three dials, using a suspension at 0.5 McFarland. The dishes were incubated at 37° C. for 48 hours. The colonies formed were examined visually after incubation for 24 and 48 hours. The color of these colonies and also the intensity of this color were noted.

[2] = test system: Candida albicans (056); test: as above; conditions: 0.3 g/l
Protocol: as §1

[3] = test system: Klebsiella pneumoniae (023); test: as above; conditions: 0.3 g/l
Protocol: as §1

[4] = test system: Streptococcus pyogenes (067); test: as above; conditions: 0.3 g/l
Protocol: as §1

[5] = test system: Proteus mirabilis (103); test: as above; conditions: 0.3 g/l
Protocol: as §1

[6] = test system: Enterococcus faecalis (075); test: as above; conditions: 0.3 g/l
Protocol: as §1

[7] = test system: Staphylococcus aureus (070); test: as above; conditions: 0.3 g/l
Protocol: as §1

[8] = test system: Citrobacter koseri (090); test: as above; conditions: 0.3 g/l
Protocol: as §1

[9] = test system: Listeria innocua (036); test: as above; conditions: 0.3 g/l
Protocol: as §1

[10] = test system: Enterobacter cloacae (NCTC 11936); test: L-alanine-aminopeptidase activity on gelled medium, Example 8; design: key to growth: ++ means good growth; + means moderate growth; +/− means poor growth; NG means no growth
Protocol: (§2) A gelled medium comprising these three substrates is prepared as follows: 30 mg of each substrate are dissolved (heating) in 10 ml of sterile distilled water. Ten ml of this solution are then added to 90 ml of Columbia agar kept molten at 50° C.
(§3) Various strains of microorganisms derived from the NCTC collection (National Collection of Type Cultures, Colindale, UK) were seeded onto the media thus obtained according to multipoint inoculation: for each strain, a drop of 10 μl of a suspension at 0.5 McFarland is deposited onto each of the culture media.
(§4) The colonies formed were examined visually after incubation for 24 h and 48 h. The color and the growth of these colonies were noted.

[11] = test system: Staphylococcus aureus (NCTC 11939); test: as above; design: key to growth: ++ means good growth; + means moderate growth; +/− means poor growth; NG means no growth
Protocol: as §2, §3, §4

[12] = test system: Listeria monocytogenes (NCTC 11994); test: as above; design: key to growth: ++ means good growth; + means moderate growth; +/− means poor growth; NG means no growth
Protocol: as §2, §3, §4

[13] = test system: Staphylococcus aureus (NCTC 6571); test: as above; design: key to growth: ++ means good growth; + means moderate growth; +/− means poor growth; NG means no growth
Protocol: as §2, §3, §4

[14] = test system: E. coli O157 (NCTC 12079); test: as above; design: key to growth: ++ means good growth; + means moderate growth; +/− means poor growth; NG means no growth
Protocol: as §2, §3, §4

[15] = test system: Klebsiella pneumoniae (NCTC 10896); test: as above; design: key to growth: ++ means good growth; + means moderate growth; +/− means poor growth; NG means no growth
Protocol: as §2, §3, §4

[16] = test system: Enterococcus faecalis (NCTC 12697); test: as above; design: key to growth: ++ means good growth; + means moderate growth; +/− means poor growth; NG means no growth
Protocol: as §2, §3, §4

[17] = test system: Pseudomonas aeruginosa (NCTC 10662); test: as above; design: key to growth: ++ means good growth; + means moderate growth; +/− means poor growth; NG means no growth
Protocol: as §2, §3, §4

[18] = test system: Salmonella poona (NCTC 4840); test: as above; design: key to growth: ++ means good growth; + means moderate growth; +/− means poor growth; NG means no growth
Protocol: as §2, §3, §4

[19] = test system: Salmonella typhimurium (NCTC 74); test: as above; design: key to growth: ++ means good growth; + means moderate growth; +/− means poor growth; NG means no growth
Protocol: as §2, §3, §4

[20] = test system: Enterococcus faecalis (NCTC 755); test: as above; design: key to growth: ++ means good growth; + means moderate growth; +/− means poor growth; NG means no growth
Protocol: as §2, §3, §4

[21] = test system: Serratia marcescens (NCTC 10211); test: as above; design: key to growth: ++ means good growth; + means moderate growth; +/− means poor growth; NG means no growth
Protocol: as §2, §3, §4

[22] = test system: Shigella sonnei (NCTC 9774); test: as above; design: key to growth: ++ means good growth; + means moderate growth; +/− means poor growth; NG means no growth
Protocol: as §2, §3, §4

[23] = test system: Burkholderia cepacia (NCTC 10743); test: as above; design: key to growth: ++ means good growth; + means moderate growth; +/− means poor growth; NG means no growth
Protocol: as §2, §3, §4

[24] = test system: Enterococcus faecium (NCTC 7171); test: as above; design: key to growth: ++ means good growth; + means moderate growth; +/− means poor growth; NG means no growth
Protocol: as §2, §3, §4

[25] = test system: Pseudomonas stutzeri (073); test: β-alanine-aminopeptidase activity on gelled medium, Example 5; conditions: 0.3 g/l
Protocol: as §1, with “of β-Ala-4-AP-10-MA” for “of L-Ala-4-AP-10-MA”, “suspension of” for “suspension at”

[26] = test system: Escherichia coli (032); test: as above; conditions: 0.3 g/l
Protocol: as §1, with “of β-Ala-4-AP-10-MA” for “of L-Ala-4-AP-10-MA”, “suspension of” for “suspension at”

[27] = test system: Burkholderia cepacia (004); test: as above; conditions: 0.3 g/l
Protocol: as §1, with “of β-Ala-4-AP-10-MA” for “of L-Ala-4-AP-10-MA”, “suspension of” for “suspension at”

[28] = test system: Klebsiella pneumoniae (023); test: as above; conditions: 0.3 g/l
Protocol: as §1, with “of β-Ala-4-AP-10-MA” for “of L-Ala-4-AP-10-MA”, “suspension of” for “suspension at”

[29] = test system: Pseudomonas aeruginosa (052); test: as above; conditions: 0.3 g/l
Protocol: as §1, with “of β-Ala-4-AP-10-MA” for “of L-Ala-4-AP-10-MA”, “suspension of” for “suspension at”

[30] = test system: Pseudomonas fluorescens (016); test: as above; conditions: 0.3 g/l
Protocol: as §1, with “of β-Ala-4-AP-10-MA” for “of L-Ala-4-AP-10-MA”, “suspension of” for “suspension at”

[31] = test system: Acinetobacter calcoaceticus (034); test: as above; conditions: 0.3 g/l
Protocol: as §1, with “of β-Ala-4-AP-10-MA” for “of L-Ala-4-AP-10-MA”, “suspension of” for “suspension at”

[32] = test system: Pseudomonas putida (028); test: as above; conditions: 0.3 g/l
Protocol: as §1, with “of β-Ala-4-AP-10-MA” for “of L-Ala-4-AP-10-MA”, “suspension of” for “suspension at”

[33] = test system: Pseudomonas aeruginosa (165); test: as above; conditions: 0.3 g/l
Protocol: as §1, with “of β-Ala-4-AP-10-MA” for “of L-Ala-4-AP-10-MA”, “suspension of” for “suspension at”

Compound: C[C@H](N)C(=O)Nc1ccc(-c2c3ccccc3[n+](C)c3ccccc23)cc1.[Cl-] [L-Ala-4-AP-10-MA, L-alanyl-9-(4-aminophenyl)-10-methylacridinium Chloride]
- Color ([1]; 24 H): pink-orange
- Intensity ([1]; 24 H): 3.5
- Color ([1]; 48 h): pink-orange
- Intensity ([1]; 48 h): 3.5
- Color ([2]; 24 H): colorless
- Color ([2]; 48 h): colorless
- Color ([3]; 24 H): pink-orange
- Intensity ([3]; 24 H): 3
- Color ([3]; 48 h): pink-orange
- Intensity ([3]; 48 h): 3
- Color ([4]; 24 H): inhibited
- Color ([4]; 48 h): inhibited
- Color ([5]; 24 H): pink-orange
- Intensity ([5]; 24 H): 1
- Color ([5]; 48 h): pink-orange
- Intensity ([5]; 48 h): 2
- Color ([6]; 24 H): pink
- Intensity ([6]; 24 H): traces
- Color ([6]; 48 h): pink-orange
- Intensity ([6]; 48 h): 0.5
- Color ([7]; 24 H): inhibited
- Color ([7]; 48 h): inhibited
- Color ([8]; 24 H): pink-orange
- Intensity ([8]; 24 H): 3
- Color ([8]; 48 h): pink-orange
- Intensity ([8]; 48 h): 3
- Color ([9]; 24 H): colorless
- Color ([9]; 48 h): pink-orange
- Intensity ([9]; 48 h): traces
- color of colonies ([10]; 24 h): Orange
- growth ([10]; 24 h): ++
- color of colonies ([10]; 48 h): Orange
- growth ([10]; 48 h): ++
- color of colonies ([11]; 24 h): Colorless
- growth ([11]; 24 h): ++
- color of colonies ([11]; 48 h): Colorless
- growth ([11]; 48 h): ++
- color of colonies ([12]; 24 h): Colorless
- growth ([12]; 24 h): ++
- color of colonies ([12]; 48 h): Colorless
- growth ([12]; 48 h): ++
- growth ([13]; 24 h): NG
- growth ([13]; 48 h): NG
- color of colonies ([14]; 24 h): Orange
- growth ([14]; 24 h): ++
- color of colonies ([14]; 48 h): Orange
- growth ([14]; 48 h): ++
- color of colonies ([15]; 24 h): Orange
- growth ([15]; 24 h): ++
- color of colonies ([15]; 48 h): Orange
- growth ([15]; 48 h): ++
- color of colonies ([16]; 24 h): Colorless
- growth ([16]; 24 h): +/−
- color of colonies ([16]; 48 h): Colorless
- growth ([16]; 48 h): +/−
- color of colonies ([17]; 24 h): Orange
- growth ([17]; 24 h): ++
- color of colonies ([17]; 48 h): Orange
- growth ([17]; 48 h): ++
- color of colonies ([18]; 24 h): Orange
- growth ([18]; 24 h): ++
- color of colonies ([18]; 48 h): Orange
- growth ([18]; 48 h): ++
- color of colonies ([19]; 24 h): Orange
- growth ([19]; 24 h): ++
- color of colonies ([19]; 48 h): Orange
- growth ([19]; 48 h): ++
- growth ([20]; 24 h): NG
- growth ([20]; 48 h): NG
- color of colonies ([21]; 24 h): Orange
- growth ([21]; 24 h): ++
- color of colonies ([21]; 48 h): Orange
- growth ([21]; 48 h): ++
- color of colonies ([22]; 24 h): Orange
- growth ([22]; 24 h): ++
- color of colonies ([22]; 48 h): Orange
- growth ([22]; 48 h): ++
- color of colonies ([23]; 24 h): Orange
- growth ([23]; 24 h): ++
- color of colonies ([23]; 48 h): Orange
- growth ([23]; 48 h): ++
- color of colonies ([24]; 24 h): Colorless
- growth ([24]; 24 h): ++
- color of colonies ([24]; 48 h): Colorless
- growth ([24]; 48 h): ++

Compound: C[n+]1c2ccccc2c(-c2ccc(NC(=O)CCN)cc2)c2ccccc21.[Cl-] [β-Ala-4-AP-10-MA, β-alanyl-9-(4-aminophenyl)-10-methylacridinium chloride]
- Color ([25]; 24 H): inhibited
- Color ([25]; 48 h): colorless
- Color ([26]; 24 H): colorless
- Color ([26]; 48 h): colorless
- Color ([27]; 24 H): colorless
- Color ([27]; 48 h): colorless
- Color ([28]; 24 H): colorless
- Color ([28]; 48 h): colorless
- Color ([29]; 24 H): orange
- Intensity ([29]; 24 H): 2
- Color ([29]; 48 h): orange
- Intensity ([29]; 48 h): 3
- Color ([30]; 24 H): inhibited
- Color ([30]; 48 h): colorless
- Color ([31]; 24 H): colorless
- Color ([31]; 48 h): colorless
- Color ([32]; 24 H): colorless
- Color ([32]; 48 h): colorless
- Color ([33]; 24 H): orange
- Intensity ([33]; 24 H): 1.5
- Color ([33]; 48 h): orange
- Intensity ([33]; 48 h): 3
